Experimental data reported in patent US9290451B2 (Hoffmann-La Roche Inc., priority 2011, dated 2016).
pEC50: −log10 of the molar value.

Key:
human CB2 receptors = human CB2 receptors (Homo sapiens (Human), UniProt P34972); test: cAMP assay, CHO cells expressing human CB2 receptors; type: cell-based; details: CHO cells expressing human CB2, cAMP; read-out: human CB2 EC50
In short: (§1)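 CHO cells, KRB buffer + 1 mM IBMX, 30 min 30 °C preincubation; compound 30 min 30 °C; lysis + TR-FRET cAMP detection, 2 h RT; cAMP from standard curve (10 μM–0.13 nM); EC50.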

human CB1 receptors = human CB1 receptors (Homo sapiens (Human), UniProt P21554); test: cAMP assay, CHO cells expressing human CB1 receptors; type: cell-based; details: CHO cells expressing human CB1, cAMP; read-out: human CB1 EC50
human CB1 receptors, sequence (P21554 whole entry): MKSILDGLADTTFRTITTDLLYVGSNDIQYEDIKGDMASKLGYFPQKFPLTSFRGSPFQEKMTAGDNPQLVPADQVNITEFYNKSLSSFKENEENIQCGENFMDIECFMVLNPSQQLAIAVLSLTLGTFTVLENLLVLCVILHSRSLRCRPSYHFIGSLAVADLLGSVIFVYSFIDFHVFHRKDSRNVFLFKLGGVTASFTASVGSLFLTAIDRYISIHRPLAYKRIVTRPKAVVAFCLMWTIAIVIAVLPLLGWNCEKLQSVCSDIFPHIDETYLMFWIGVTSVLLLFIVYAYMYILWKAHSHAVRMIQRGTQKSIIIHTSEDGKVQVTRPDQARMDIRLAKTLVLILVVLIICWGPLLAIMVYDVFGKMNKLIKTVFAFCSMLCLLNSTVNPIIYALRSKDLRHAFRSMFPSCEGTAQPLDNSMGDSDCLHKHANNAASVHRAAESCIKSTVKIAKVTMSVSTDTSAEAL
In short: as §1

human CB2 receptors, sequence (P34972 whole entry): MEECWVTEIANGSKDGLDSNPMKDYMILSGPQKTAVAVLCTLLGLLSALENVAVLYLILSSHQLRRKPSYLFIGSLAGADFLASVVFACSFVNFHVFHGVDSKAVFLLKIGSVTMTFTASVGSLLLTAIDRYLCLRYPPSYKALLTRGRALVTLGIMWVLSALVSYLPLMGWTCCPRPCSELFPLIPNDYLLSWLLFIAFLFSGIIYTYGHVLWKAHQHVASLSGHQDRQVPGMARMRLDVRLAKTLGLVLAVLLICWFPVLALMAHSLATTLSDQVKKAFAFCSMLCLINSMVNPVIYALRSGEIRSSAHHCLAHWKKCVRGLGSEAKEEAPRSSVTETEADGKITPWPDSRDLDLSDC

| Structure (SMILES) | pEC50 (human CB2 receptors) | pEC50 (human CB1 receptors) |
| --- | --- | --- |
| CC(C)CC(NC(=O)c1ccc(N2CC(F)(F)C2)c(OCC2CC2)n1)c1cccnc1 (stereo not shown) [Example 325, 6-Cyclopropylmethoxy-5-(3,3-difluoro-azetidin-1-yl)-pyridine-2-carboxylic acid (3-methyl-1-pyridin-3-yl-butyl)-amide] | 7.76 | < 5.00 |
| NC(=O)[C@H](CC1CC1)NC(=O)c1ccc(C2CC2)c(Cc2ccc(F)cc2)n1 [Example 326, 5-Cyclopropyl-6-(4-fluoro-benzyl)-pyridine-2-carboxylic acid ((S)-1-carbamoyl-2-cyclopropyl-ethyl)-amide] | 9.70 | 7.23 |
| Cc1nc([C@H](CC2CC2)NC(=O)c2ccc(C3CC3)c(Cc3ccc(F)cc3)n2)no1 [Example 327, 5-Cyclopropyl-6-(4-fluoro-benzyl)-pyridine-2-carboxylic acid [(S)-2-cyclopropyl-1-(5-methyl-[1,2,4]oxadiazol-3-yl)-ethyl]-amide] | 8.96 | 7.87 |
| NC(=O)[C@@H](NC(=O)c1ccc(C2CC2)c(OCC2CC2)n1)c1ccc(F)cc1 [Example 328, 5-Cyclopropyl-6-cyclopropylmethoxy-pyridine-2-carboxylic acid [(S)-carbamoyl-(4-fluoro-phenyl)-methyl]-amide] | 8.41 | < 5.00 |
| NC(=O)[C@@H](NC(=O)c1ccc(C2CC2)c(OCC2CC2)n1)c1ccc(Cl)cc1 [Example 329, 5-Cyclopropyl-6-cyclopropylmethoxy-pyridine-2-carboxylic acid [(S)-carbamoyl-(4-chloro-phenyl)-methyl]-amide] | 7.68 | < 5.00 |
| CC(C)C[C@H](NC(=O)c1cccc(S(=O)(=O)CC(C)C)n1)C(N)=O [Example 330, 6-(2-Methyl-propane-1-sulfonyl)-pyridine-2-carboxylic acid ((S)-1-carbamoyl-3-methyl-butyl)-amide] | 6.06 | < 5.00 |
| CC(C)CSc1cccc(C(=O)N[C@@H](CC(C)C)C(N)=O)n1 [Example 331, 6-Isobutylsulfanyl-pyridine-2-carboxylic acid ((S)-1-carbamoyl-3-methyl-butyl)-amide] | 7.78 | < 5.00 |
| O=C(N[C@@H](c1ccccn1)C(F)(F)F)c1ccc(C2CC2)c(Cc2ccc(F)cc2)n1 [Example 332, 5-Cyclopropyl-6-(4-fluoro-benzyl)-pyridine-2-carboxylic acid ((S)-2,2,2-trifluoro-1-pyridin-2-yl-ethyl)-amide] | 8.35 | 7.04 |
| CCC(CC)(NC(=O)c1ccc(C2CC2)c(Cc2ccc(F)cc2)n1)C(=O)O [Example 333, 2-{[5-Cyclopropyl-6-(4-fluoro-benzyl)-pyridine-2-carbonyl]-amino}-2-ethyl-butyric acid] | 8.10 | 7.09 |
| Cc1nc(C(C)(C)NC(=O)c2ccc(N3CCC(=O)C3)c(OCC3CC3)n2)no1 [Example 334, 6-Cyclopropylmethoxy-5-(3-oxo-pyrrolidin-1-yl)-pyridine-2-carboxylic acid [1-methyl-1-(5-methyl-[1,2,4]oxadiazol-3-yl)-ethyl]-amide] | 6.97 | < 5.00 |
| Cc1nc([C@H](CC(C)C)NC(=O)c2cccc(S(=O)(=O)CC(C)C)n2)no1 [Example 335, 6-(2-Methyl-propane-1-sulfonyl)-pyridine-2-carboxylic acid [(S)-3-methyl-1-(5-methyl-[1,2,4]oxadiazol-3-yl)-butyl]-amide] | 6.02 | < 5.00 |
| CC(C)C[C@H](NC(=O)c1ccc(C2CC2)c(Cc2ccc(F)cc2)n1)C(=O)O [Example 336, (S)-2-{[5-Cyclopropyl-6-(4-fluoro-benzyl)-pyridine-2-carbonyl]-amino}-4-methyl-pentanoic acid] | 6.62 | < 5.00 |
| CCC(CC)(NC(=O)c1ccc(C2CC2)c(OCC2CCOCC2)n1)C(=O)O [Example 337, 2-{[5-Cyclopropyl-6-(tetrahydro-pyran-4-ylmethoxy)-pyridine-2-carbonyl]-amino}-2-ethyl-butyric acid] | 7.46 | 6.32 |
| Cn1c(C(C)(C)NC(=O)c2ccc(C3CC3)c(OCC3CC3)n2)noc1=O [Example 338, 5-Cyclopropyl-6-cyclopropylmethoxy-pyridine-2-carboxylic acid [1-methyl-1-(4-methyl-5-oxo-4,5-dihydro-[1,2,4]oxadiazol-3-yl)-ethyl]-amide] | 6.27 | < 5.00 |
| CC(C)CC(NC(=O)c1ccc(N2CC(F)(F)C2)c(OCC2CC2)n1)c1ncccn1 (stereo not shown) [Example 339, 6-Cyclopropylmethoxy-5-(3,3-difluoro-azetidin-1-yl)-pyridine-2-carboxylic acid (3-methyl-1-pyrimidin-2-yl-butyl)-amide] | 7.19 | < 5.00 |
| Cc1nc(C(C)(NC(=O)c2ccc(N3CC(F)(F)C3)c(OCC3CC3)n2)C2CC2)no1 (stereo not shown) [Example 340, 6-Cyclopropylmethoxy-5-(3,3-difluoro-azetidin-1-yl)-pyridine-2-carboxylic acid [1-cyclopropyl-1-(5-methyl-[1,2,4]oxadiazol-3-yl)-ethyl]-amide] | 8.24 | < 5.00 |
| Cc1nc(C(C)(CC2CC2)NC(=O)c2ccc(N3CC(F)(F)C3)c(OCC3CC3)n2)no1 (stereo not shown) [Example 341, 6-Cyclopropylmethoxy-5-(3,3-difluoro-azetidin-1-yl)-pyridine-2-carboxylic acid [2-cyclopropyl-1-methyl-1-(5-methyl-[1,2,4]oxadiazol-3-yl)-ethyl]-amide] | 8.08 | < 5.00 |
| CSCC[C@H](NC(=O)c1ccc(N2CC(F)(F)C2)c(OCC2CC2)n1)C(N)=O [Example 342, 6-Cyclopropylmethoxy-5-(3,3-difluoro-azetidin-1-yl)-pyridine-2-carboxylic acid ((S)-1-carbamoyl-3-methylsulfanyl-propyl)-amide] | 8.55 | < 5.00 |
| Cc1nc([C@H](CC2CC2)NC(=O)c2cccc(-c3ccc(F)c(Cl)c3)n2)no1 [Example 343, 6-(3-Chloro-4-fluoro-phenyl)-pyridine-2-carboxylic acid [(S)-2-cyclopropyl-1-(5-methyl-[1,2,4]oxadiazol-3-yl)-ethyl]-amide] | 8.46 | < 5.00 |
| CC(C)C[C@@H](CNc1ccc([N+](=O)[O-])c2nonc12)NC(=O)c1ccc(N2CCCC2)c(OCC2CC2)n1 [Example 344, 6-Cyclopropylmethoxy-5-pyrrolidin-1-yl-pyridine-2-carboxylic acid {(S)-3-methyl-1-[(7-nitro-benzo[1,2,5]oxadiazol-4-ylamino)-methyl]-butyl}-amide] | 7.59 | < 5.00 |
| CS(=O)(=O)CC[C@H](NC(=O)c1ccc(N2CC(F)(F)C2)c(OCC2CC2)n1)C(N)=O [Example 345, 6-Cyclopropylmethoxy-5-(3,3-difluoro-azetidin-1-yl)-pyridine-2-carboxylic acid ((S)-1-carbamoyl-3-methanesulfonyl-propyl)-amide] | 6.53 | < 5.00 |
| CC(C)CSc1nc(C(=O)N[C@@H](CC(C)C)C(N)=O)ccc1C1CC1 [Example 346, 5-Cyclopropyl-6-isobutylsulfanyl-pyridine-2-carboxylic acid ((S)-1-carbamoyl-3-methyl-butyl)-amide] | 7.96 | < 5.00 |
| Cc1nc([C@H](CC2CC2)NC(=O)c2cccc(-c3cccc(F)c3)n2)no1 [Example 347, 6-(3-Fluoro-phenyl)-pyridine-2-carboxylic acid [(S)-2-cyclopropyl-1-(5-methyl-[1,2,4]oxadiazol-3-yl)-ethyl]-amide] | 7.30 | < 5.00 |
| Cc1nc([C@H](CC2CC2)NC(=O)c2cccc(-c3ccc(F)c(C(F)(F)F)c3)n2)no1 [Example 348, 6-(4-Fluoro-3-trifluoromethyl-phenyl)-pyridine-2-carboxylic acid [(S)-2-cyclopropyl-1-(5-methyl-[1,2,4]oxadiazol-3-yl)-ethyl]-amide] | 7.61 | < 5.00 |
| CC(C)(CCS(C)(=O)=O)NC(=O)c1ccc(C2CC2)c(OCC2CC2)n1 [Example 349, 5-Cyclopropyl-6-cyclopropylmethoxy-pyridine-2-carboxylic acid (3-methanesulfonyl-1,1-dimethyl-propyl)-amide] | 6.32 | < 5.00 |
| Cc1cnc(C(C)(C)NC(=O)c2ccc(C3CC3)c(OCC3CC3)n2)s1 [Example 350, 5-Cyclopropyl-6-cyclopropylmethoxy-pyridine-2-carboxylic acid [1-methyl-1-(5-methyl-thiazol-2-yl)-ethyl]-amide] | 8.44 | < 5.00 |
| CC(C)C[C@H](NC(=O)c1ccc(C2CC2)c(S(=O)(=O)CC(C)C)n1)C(N)=O [Example 351, 5-Cyclopropyl-6-(2-methyl-propane-1-sulfonyl)-pyridine-2-carboxylic acid ((S)-1-carbamoyl-3-methyl-butyl)-amide] | 7.40 | < 5.00 |
| Cc1nc([C@H](CC2CC2)NC(=O)c2ccc(C3CC3)c(S(=O)(=O)CC(C)C)n2)no1 [Example 352, 5-Cyclopropyl-6-(2-methyl-propane-1-sulfonyl)-pyridine-2-carboxylic acid [(S)-2-cyclopropyl-1-(5-methyl-[1,2,4]oxadiazol-3-yl)-ethyl]-amide] | 6.72 | < 5.00 |
| CC(C)C[C@@H](NC(=O)c1ccc(N2CC(F)(F)C2)c(OCC2CC2)n1)c1cccnn1 [Example 354, 6-Cyclopropylmethoxy-5-(3,3-difluoro-azetidin-1-yl)-pyridine-2-carboxylic acid ((R)-3-methyl-1-pyridazin-3-yl-butyl)-amide] | 7.83 | < 5.00 |
